ChEMBL document CHEMBL1154343, “Synthesis and biological evaluation of pyrrolopyridazine derivatives as novel HER-2 tyrosine kinase inhibitors” (Bioorg Med Chem Lett, 2009)

Legend:
[1] = biological target: T1, Receptor tyrosine-protein kinase erbB-2 (Homo sapiens, UniProt P04626); experiment: Inhibition of HER2 in human SKBR3 cells by HTRF assay
[2] = biological target: T2, Epidermal growth factor receptor (Homo sapiens, UniProt P00533); experiment: Inhibition of EGFR by HTRF assay
[3] = biological target: T2, Epidermal growth factor receptor; experiment: Inhibition of EGFR in human A431 cells by HTRF assay
[4] = biological target: T1, Receptor tyrosine-protein kinase erbB-2; experiment: Inhibition of HER2 by HTRF assay

T2 sequence (P00533 whole entry): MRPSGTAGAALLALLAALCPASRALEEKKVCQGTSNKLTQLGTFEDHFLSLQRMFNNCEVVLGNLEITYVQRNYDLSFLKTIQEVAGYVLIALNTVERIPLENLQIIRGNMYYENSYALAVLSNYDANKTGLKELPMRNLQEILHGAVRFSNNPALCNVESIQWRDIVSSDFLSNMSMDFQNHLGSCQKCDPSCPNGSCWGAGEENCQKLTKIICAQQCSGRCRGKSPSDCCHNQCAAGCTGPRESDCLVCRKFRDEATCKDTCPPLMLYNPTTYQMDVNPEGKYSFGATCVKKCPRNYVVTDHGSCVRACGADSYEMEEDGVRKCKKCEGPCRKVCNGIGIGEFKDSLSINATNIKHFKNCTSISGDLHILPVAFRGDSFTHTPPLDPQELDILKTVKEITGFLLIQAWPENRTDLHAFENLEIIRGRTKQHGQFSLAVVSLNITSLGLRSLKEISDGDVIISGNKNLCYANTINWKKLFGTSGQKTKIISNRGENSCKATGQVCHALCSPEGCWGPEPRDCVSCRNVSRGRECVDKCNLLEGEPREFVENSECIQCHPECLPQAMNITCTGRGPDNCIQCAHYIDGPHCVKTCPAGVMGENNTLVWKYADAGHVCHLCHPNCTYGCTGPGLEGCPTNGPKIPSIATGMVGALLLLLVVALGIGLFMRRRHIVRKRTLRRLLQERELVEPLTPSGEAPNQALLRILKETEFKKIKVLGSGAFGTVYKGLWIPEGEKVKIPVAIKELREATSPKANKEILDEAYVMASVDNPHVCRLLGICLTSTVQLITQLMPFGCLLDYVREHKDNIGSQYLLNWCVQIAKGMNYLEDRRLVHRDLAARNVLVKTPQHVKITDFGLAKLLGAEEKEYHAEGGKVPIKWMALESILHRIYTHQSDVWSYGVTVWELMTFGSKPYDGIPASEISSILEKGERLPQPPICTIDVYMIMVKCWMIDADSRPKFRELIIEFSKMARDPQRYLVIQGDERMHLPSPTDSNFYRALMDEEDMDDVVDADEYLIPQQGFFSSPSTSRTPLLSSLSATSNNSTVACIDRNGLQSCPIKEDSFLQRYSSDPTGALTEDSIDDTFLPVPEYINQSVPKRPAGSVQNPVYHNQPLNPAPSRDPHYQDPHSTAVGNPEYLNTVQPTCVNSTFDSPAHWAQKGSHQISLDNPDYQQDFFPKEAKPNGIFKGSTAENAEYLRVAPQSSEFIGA
T1 sequence (P04626 whole entry): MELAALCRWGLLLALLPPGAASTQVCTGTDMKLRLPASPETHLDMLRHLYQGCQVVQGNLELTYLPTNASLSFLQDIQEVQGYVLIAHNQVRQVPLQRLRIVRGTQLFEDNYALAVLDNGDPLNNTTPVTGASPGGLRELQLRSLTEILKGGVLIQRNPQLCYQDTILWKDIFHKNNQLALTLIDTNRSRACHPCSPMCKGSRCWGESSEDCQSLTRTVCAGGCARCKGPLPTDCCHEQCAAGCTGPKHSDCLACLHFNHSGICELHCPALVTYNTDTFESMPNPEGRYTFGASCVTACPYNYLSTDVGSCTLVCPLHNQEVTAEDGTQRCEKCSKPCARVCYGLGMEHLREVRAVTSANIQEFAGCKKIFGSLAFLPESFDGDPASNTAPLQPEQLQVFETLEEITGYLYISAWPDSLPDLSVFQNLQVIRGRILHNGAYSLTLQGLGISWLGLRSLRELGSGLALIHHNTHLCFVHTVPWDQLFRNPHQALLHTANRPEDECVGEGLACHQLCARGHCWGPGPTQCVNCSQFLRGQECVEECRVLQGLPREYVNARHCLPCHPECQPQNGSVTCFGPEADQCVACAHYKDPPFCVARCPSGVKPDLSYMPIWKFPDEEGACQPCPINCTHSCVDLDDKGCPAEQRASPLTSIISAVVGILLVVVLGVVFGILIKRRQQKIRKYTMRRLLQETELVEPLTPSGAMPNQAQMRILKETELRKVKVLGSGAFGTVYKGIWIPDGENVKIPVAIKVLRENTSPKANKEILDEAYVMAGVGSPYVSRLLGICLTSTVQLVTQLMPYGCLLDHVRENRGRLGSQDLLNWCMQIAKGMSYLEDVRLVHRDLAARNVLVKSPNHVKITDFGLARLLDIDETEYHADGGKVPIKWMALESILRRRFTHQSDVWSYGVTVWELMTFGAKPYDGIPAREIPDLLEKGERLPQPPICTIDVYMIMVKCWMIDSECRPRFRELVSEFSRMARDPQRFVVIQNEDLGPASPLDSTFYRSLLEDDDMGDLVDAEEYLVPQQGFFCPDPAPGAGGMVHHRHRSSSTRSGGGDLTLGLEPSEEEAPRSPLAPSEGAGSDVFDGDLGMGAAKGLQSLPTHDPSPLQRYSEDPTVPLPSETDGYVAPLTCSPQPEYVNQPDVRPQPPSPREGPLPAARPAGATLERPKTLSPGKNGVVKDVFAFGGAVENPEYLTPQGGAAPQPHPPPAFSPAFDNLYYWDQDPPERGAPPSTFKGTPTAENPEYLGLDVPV

Row | IC50 [1] | IC50 [2] | IC50 [3] | IC50 [4] | Structure (SMILES)
1 | 3840 nM | > 10000 nM | 77200 nM |  | CCN(CC)CCNC(=O)c1cc2cnnc(Nc3ccc(OCc4cccc(F)c4)c(Cl)c3)c2[nH]1
2 | 843 nM | > 10000 nM | 257 nM |  | Cc1c(C(=O)NCCN2CCN(C)CC2)[nH]c2cnnc(Nc3ccc(OCc4cccc(F)c4)c(Cl)c3)c12
3 | 960 nM | 1280 nM | 1160 nM | 7 nM | CCN(CC)CCNC(=O)c1[nH]c2cnnc(Nc3ccc(OCc4cccc(F)c4)c(Cl)c3)c2c1C

More lines, now with the values behind:

Row | Structure (SMILES) | IC50 [1] | IC50 [2] | IC50 [3] | IC50 [4]
4 | O=C(NCCN1CCCC1)c1cc2cnnc(Nc3ccc(OCc4cccc(F)c4)c(Cl)c3)c2[nH]1 | 620 nM | > 10000 nM | 15100 nM | 
5 | Cc1c(C(=O)NCCN2CCOCC2)[nH]c2cnnc(Nc3ccc(OCc4cccc(F)c4)c(Cl)c3)c12 | > 5000 nM | 5000 nM | 12700 nM | 4 nM
6 | Cc1c(C(=O)NCCN2CCOCC2)[nH]c2cnnc(Nc3ccc(OCc4ccccn4)c(Cl)c3)c12 | > 5000 nM |  |  | 
7 | CCOC(=O)c1[nH]c(C)c2cnnc(Nc3ccc(OCc4cccc(F)c4)c(Cl)c3)c12 | 934 nM | > 10000 nM | 1210 nM | 
8 | Cc1c(C(=O)NCCCN2CCN(C)CC2)[nH]c2cnnc(Nc3ccc(OCc4cccc(F)c4)c(Cl)c3)c12 | 2240 nM | > 10000 nM | 980 nM | 
